Assay results published in article PMC5344956 (Cancer Chemotherapy and Pharmacology, 2017).

Assays:
human liver microsomes = experiment: In vitro metabolism with human liver microsomes and CYP-specific chemical inhibitors (data not shown); assay type: in vitro ADME; conditions: CYP-specific chemical inhibitors
[1] = Metabolite characterization by LC/MS/MS in human plasma, urine, and feces; conditions: human plasma, urine, feces; LC/MS/MS
Protocol: The remaining eluate stream of 0.16 mL/min from the HPLC runs was diverted to the inlet of the mass spectrometer. The samples were analyzed using a heated electrospray ionization probe. Full-scan positive ion MS data were collected using Finnigan Exactive (MS^1) or Q-Exactive (MS^1 and MS^2) mass spectrometers (Thermo Fisher Scientific Inc.) Exact conditions are described in the Online Resource 3.
Finnigan Exactive or Q-Exactive mass spectrometers (Thermo Fisher Scientific Inc., San Jose, CA) were used to collect full scan MS^1 and MS^2 data.

[2] = Metabolite profiling of feces (HPLC-radiochromatography); assay type: in vivo, human; conditions: 0–144 h pool; for % Distribution in matrix: % of fecal TRA
Protocol: One-gram samples of the fecal homogenates were transferred to 50-mL polypropylene tubes, extracted with 4 mL of methanol, and centrifuged (4500g). The resulting residues were extracted three more times (once with 2 mL of methanol and twice with 1 mL of methanol containing 1% formic acid) and centrifuged. All supernatants were combined and evaporated under nitrogen, and the residue was reconstituted with 0.5 mL of methanol, vortexed, sonicated, and centrifuged. A 0.010-mL aliquot of the supernatant was removed for determination of radioactivity, and the remainder of the supernatant was transferred to an HPLC vial and stored at −80 °C.
A Finnigan Surveyor HPLC system (Thermo Fisher Scientific Inc., San Jose, CA, USA), consisting of an LC pump plus an autosampler and a UV–Vis plus detector, was used mostly for profiling (except the post-24-h plasma samples, which were analyzed using a Dionex HPLC system). A Phenomenex® Gemini® C18, 5-μm, 3.0 × 100-mm column (Phenomenex Inc., Torrance, CA, USA) was used along with a C-12 guard column (4 × 2 mm). LC conditions were as follows: solvent A was 10 mM ammonium bicarbonate in water (pH 10.0) and solvent B was 100% methanol and the flow rate was 0.8 mL/min. The following gradient was employed (B%): 0–5 min (20%), 32 min (42%), 33 min (60%), 55 min (70%), 56–60 min (95%), and 62–70 min (20%).
Reconstituted solvent extracts (0.050–0.10 mL) of plasma, urine, or feces were injected onto the HPLC column. The post-column eluate was split after UV detection into two streams (0.64 and 0.16 mL/min). The 0.64-mL stream was diverted to a fraction collector (Gilson FX 204; Gilson Medical Electronics, Middleton, WI, USA) to be collected in 96-well plates at 0.16 min/well (ScintiPlates; PerkinElmer Life Sciences, Shelton, CT, USA), and the 0.16-mL stream was directed to the mass spectrometer. The solvent in the 96-well plates was removed at 40 °C using a Genevac evaporator (Genevac, Inc., Stone Ridge, NY, USA).
The radioactivity counts per minute (CPM) in each well was determined using a MicroBeta scintillation counter (PerkinElmer Life and Analytical Sciences). The resulting CPM vs. time data were processed using Excel (Microsoft Corporation, Seattle, WA, USA). The CPM in each well was background-subtracted (using the average CPM values of the blank region of the HPLC run). Radiochromatographic profiles were obtained by plotting the resulting net CPM values against time after injection. Radioactive peaks in the chromatographic profiles were identified, and the radioactivity in each peak was summed and reported as a percentage of TRA in the HPLC run.

[3] = Excretion and mass balance in urine and feces; assay type: in vivo, human; conditions: single oral administration
Excerpt: Six healthy male volunteers, 25–45 years of age, with a mean body weight of 83.3 kg (range 64.5–94.4) and a mean body mass index of 26.9 kg/m^2 (range 20.2–29.9) participated in the study. […] The subject release criterion was defined as follows: the combined urine and fecal radioactivity excretion for two consecutive days should fall below 1% of the dose administered.
Detailed procedures on sample collection, storage, and shipment are described in Online Resource 1. […] Urine and feces collected from each subject were pooled at predose and every 24 h thereafter. Fecal homogenates were prepared by adding water (four times the feces weight) and homogenizing.
TRA analysis was carried out at ABC Laboratories. The radioactivity in plasma (duplicate per time point) and urine samples (triplicate per time point) was quantitated by direct counting in a Beckman LS6000SC or LS6500 liquid scintillation counter (PerkinElmer Life and Analytical Sciences, Boston, MA, USA). Whole blood (duplicate per time point) and fecal homogenate (triplicate per time point) samples were oxidized, and the resultant ^14CO2 was trapped in Carbosorb (Calgon Carbon Corporation, Pittsburgh, PA, USA) in combination with Permafluor, followed by liquid scintillation counting to determine the radioactivity. Individual samples were counted for 5 min for whole blood and fecal matrices, and 10 min for plasma and urine matrices. Predose blood, plasma, urine, and feces samples served as respective control samples to determine and subtract the background radioactivity in the analysis.
All urine voided was collected and stored in containers at 5±3 °C until the collection interval was completed. Subjects voided in the morning prior to study drug administration.
Multiple collections of urine during each collection interval from each individual subject were pooled. The urine samples from each collection interval were well mixed, accurately weighed, and assessed for its pH. A 100 ml sample from each collection interval from each subject was aliquoted into a separately labeled container to be sent to ABC Laboratories for radioactivity analysis. An approximately 10 ml sample from each collection interval from each subject on day 8 and each day thereafter was used for TRA analysis at Celerion (Lincoln, NE). All urine samples were kept frozen at −80 ± 15 °C.
Stool collections began approximately 24 h prior to drug administration until the end of the postdose sampling period. The 24 h predose samples were used as control samples for the radioactivity analysis and metabolite profiling. Feces were collected daily (24 h collection periods) until subjects were discharged from the clinical research unit.
All fecal samples were collected in polypropylene containers; toilet paper was collected separately. The weight of each sample was recorded. Multiple collections of feces during each collection interval from each individual subject were pooled. The feces samples were thoroughly homogenized with water (4X the weight of the feces). A 100 g sample was aliquoted into a separately labeled container to be sent to ABC Laboratories for radioactivity analysis. An approximately 10 g sample from each collection interval from each subject on day 8 and each day thereafter was used for TRA analysis at Celerion. All fecal homogenate samples were kept frozen at −80 ± 15 °C.

[4] = co-administration of ketoconazole (potent CYP3A4 inhibitor) ref 11; cited from earlier work

Structure (SMILES): Cc1ccc(C(=O)Nc2ccc(CN3CCN(C)CC3)c(C(F)(F)F)c2)cc1C#Cc1cnc2cccnn12.Cl [Ponatinib, 3-(imidazo[1,2-b]pyridazin-3-ylethynyl)-4-methyl-N-(4-((4-methylpiperazin-1-yl)methyl)-3-(trifluoromethyl)phenyl)benzamide hydrochloride]
- CYP enzymes that metabolize the compound (human liver microsomes): metabolized mostly by CYP3A4 and to a lesser extent by CYP2D6 and CYP2C8
- Matrix (in which the metabolite was found) [1]: P, U, F
- % of total radioactive dose [2]: 20.5/2.8%
- % Distribution in matrix [2]: 23.7/3.2%
- % Distribution in matrix ([2]; listed as ponatinib): 23.7%
- % of total radioactive dose ([2]; listed as ponatinib): 20.5%
- elimination pathway N-demethylation, share of dose [3]: 8.3%
- elimination pathway hydroxylation, share of dose [3]: 18.0%
- elimination pathway methylation, share of dose [3]: 8.4%
- elimination pathway amide bond hydrolysis, share of dose ([3]; estimated from 81% of urinary TRA and 5.4% of dose in urine): 4.4%
- increase of AUC0–∞ on co-administration of ketoconazole [4]: 47%
- increase of C max on co-administration of ketoconazole [4]: 78%
